The record followed here is US3991202A, “Imidazolium salts” (Janssen Pharmaceutica N.V., priority 1974, dated 1976).

Experiment in all cases: Antifungal growth inhibition in Sabouraud's liquid medium
Holding throughout (assay type): cell-based

The subject of one experiment is Cryptococcus neoformans. As to conditions: Cr.n., tested at 100, 10, 1 μg/ml; for MIC: Cryptococcus neoformans, 336 h, read-out: Concentrations in μg/ml for 100% Inhibition of Growth. The procedure: (§1) Tests for the control of fungal organisms were performed using Sabouraud's liquid medium (1 g. of neopeptone Difco and 2 g. of glucose Difco per 100 ml. distilled water) in test tubes, each containing 4.5 ml. of liquid medium, autoclaved at 120° C for 15 minutes. The imidazolium salts were prepared for testing by dissolving in 50% ethanol to a concentration of 20 mg./ml. and thereafter diluting with sterile distilled water to obtain a concentration of 10 mg./ml. Successive decimal dilutions were then made with sterile distilled water to prepare a series of test solutions. In carrying out the test, 0.5 ml. of one of the test solutions is added to 4.5 ml. of Sabouraud's liquid medium to obtain a test medium. In this manner, from appropriate test solution, test media containing 100 μg, 10 μg and 1 μg of imidazolium salt per milliliter of medium were obtained.
(§2) Control tubes were prepared by adding 0.5 ml. of sterile distilled water to 4.5 ml. of medium. Ethanol was also added to simulate the amount which would be present in the test media. Filamentous fungi were incubated at 25° C for two to three weeks. A square block of side 2 mm. was excised and inoculated into the liquid medium. A 3-day old culture on Sabouraud's liquid medium was used for yeasts. The inoculum was 0.05 ml. per tube. All cultures were incubated at 25° C for 14 days.

The subject of a further experiment is Microsporum canis. As to conditions: M.c., tested at 100, 10, 1 μg/ml; for MIC: Microsporum canis, 336 h, read-out: Concentrations in μg/ml for 100% Inhibition of Growth. On the procedure: as §1, §2
In the next experiment the test system is Trichophyton rubrum. As to conditions: Tr.r., tested at 100, 10, 1 μg/ml; for MIC: Trichophyton rubrum, 336 h, read-out: Concentrations in μg/ml for 100% Inhibition of Growth. The procedure:
as §1, §2

Experiment [1] deals with Ctenomyces mentagrophytes. As to conditions: Ct.m., tested at 100, 10, 1 μg/ml; for MIC: Trichophyton mentagrophytes, 336 h, read-out: Concentrations in μg/ml for 100% Inhibition of Growth. On the procedure:
as §1, §2

With `Cc1cccc(C)c1N(C)C(=O)C[n+]1ccn(CC(OCc2ccc(Cl)cc2Cl)c2ccc(Cl)cc2Cl)c1` (centres unmarked), the MIC was 10 µg/mL in the experiment with Cryptococcus neoformans, 10 µg/mL with Microsporum canis, 1 µg/mL with Trichophyton rubrum and 10 µg/mL in experiment [1].
On to `CC(C(=O)Nc1ccccc1Cl)[n+]1ccn(CC(OCc2ccc(Cl)cc2Cl)c2ccc(Cl)cc2Cl)c1` (centres unmarked), for which the MIC in the experiment with Cryptococcus neoformans amounted to 100 µg/mL; with Microsporum canis, 10 µg/mL; with Trichophyton rubrum it was 1 µg/mL; in experiment [1], 10 µg/mL.
Turning to `Cc1cccc(Cl)c1CNC(=O)C(C)[n+]1ccn(CC(OCc2ccc(Cl)cc2Cl)c2ccc(Cl)cc2Cl)c1` (centres unmarked), the MIC in the experiment on Cryptococcus neoformans turned out to be 100 µg/mL; in the experiment with Microsporum canis, 1 µg/mL; with Trichophyton rubrum, 1 µg/mL; in experiment [1] it was 1 µg/mL.
In the case of `O=C(C[n+]1ccn(CC(OCc2ccc(Cl)cc2Cl)c2ccc(Cl)cc2Cl)c1)c1cccs1` (centres unmarked), the MIC with Cryptococcus neoformans is 10 µg/mL; in the experiment on Microsporum canis, 10 µg/mL; with Trichophyton rubrum it was 1 µg/mL; in experiment [1] it was 1 µg/mL.
For `O=C(C[n+]1ccn(CC(OCc2ccc(Cl)cc2Cl)c2ccc(Cl)cc2Cl)c1)c1ccc(Cl)s1` (centres unmarked), the MIC with Cryptococcus neoformans was found to be 10 µg/mL; with Microsporum canis it was 1 µg/mL; in the experiment with Trichophyton rubrum it was 1 µg/mL; in experiment [1], 1 µg/mL.
Turning to `OC(C[n+]1ccn(CC(OCc2ccc(Cl)cc2Cl)c2ccc(Cl)cc2Cl)c1)c1ccc(Cl)cc1` (centres unmarked), the MIC came out at 10 µg/mL in the experiment on Cryptococcus neoformans, 10 µg/mL in the experiment on Microsporum canis, 1 µg/mL in the experiment with Trichophyton rubrum and 1 µg/mL in experiment [1].
Regarding “1-(β-butoxy2,4-dichlorophenethyl)-3-[p-chloro-a-(p-fluorophenyl)benzyl]imidazolium chloride”, the “Concentrations in μg/ml for 100% Inhibition of Growth” value in the experiment with Cryptococcus neoformans turned out to be 100 µg/mL; with Microsporum canis, 10 µg/mL; with Trichophyton rubrum, 10 µg/mL; in experiment [1], 10 µg/mL.
For `Cc1ccccc1NC(=O)C[n+]1ccn(CC(OCc2ccc(Cl)cc2)c2ccc(Cl)cc2Cl)c1` (stereo not drawn) [2,4(Cl)2C6H3/CH2C6H4pCl/CH2CONHoCH3, 1-[2,4-Dichloro-β-(p-chlorobenzyloxy)phenethyl]-3-(N-o-tolylcarbamoymethyl)imidazolium cholride], the MIC in the experiment on Cryptococcus neoformans amounted to 10 µg/mL; in the experiment with Microsporum canis it was 10 µg/mL; in the experiment on Trichophyton rubrum, 1 µg/mL; in experiment [1] it was 1 µg/mL.
For `C=CCOC(Cn1cc[n+](CC(=O)c2ccc(F)cc2)c1)c1ccc(Cl)cc1Cl` (stereo not drawn) [2,4(Cl)2C6H3/CH2CHCH2/CH2COC6H4pF, 1-[β-(alloyloxy)-2,4-dichlorophenethyl]-3-(p-fluorophenacyl)imidazolium chloride], the MIC came to 100 µg/mL with Cryptococcus neoformans, 10 µg/mL in the experiment with Microsporum canis, 10 µg/mL with Trichophyton rubrum and 10 µg/mL in experiment [1].
In the case of `OC(C[n+]1ccn(CC(OCc2ccc(Cl)cc2)c2ccc(Cl)cc2Cl)c1)c1ccc(Cl)cc1` (centres unmarked) [2,4(Cl)2C6H3/drawing 65/CH2CHOHC6H4pCl], the MIC in the experiment on Cryptococcus neoformans amounted to 100 µg/mL; in the experiment on Microsporum canis, 1 µg/mL; with Trichophyton rubrum, 1 µg/mL; in experiment [1], 1 µg/mL.
Turning to `O=C(C[n+]1ccn(CC(OCc2ccc(Cl)cc2)c2ccc(Cl)cc2Cl)c1)c1ccc(F)cc1` (centres unmarked) [2,4(Cl)2C6H3/drawing 65/CH2COC6H4pF], the MIC in the experiment with Cryptococcus neoformans was 10 µg/mL; with Microsporum canis, 1 µg/mL; in the experiment on Trichophyton rubrum, 1 µg/mL; in experiment [1] it was 1 µg/mL.
As to `OC(C[n+]1ccn(CC(OCc2c(Cl)cccc2Cl)c2ccc(Cl)cc2Cl)c1)c1ccc(Cl)cc1` (centres unmarked) [2,4(Cl)2C6H3/drawing 66/CH2CHOHC6H4pCl], the MIC with Cryptococcus neoformans is 10 µg/mL; in the experiment with Microsporum canis, 10 µg/mL; with Trichophyton rubrum, 1 µg/mL; in experiment [1] it was 10 µg/mL.
Turning to `O=C(C[n+]1ccn(CC(OCc2c(Cl)cccc2Cl)c2ccc(Cl)cc2Cl)c1)c1ccc(F)cc1` (centres unmarked) [2,4(Cl)2C6H3/drawing 66/CH2COC6H4pF], the MIC in the experiment with Cryptococcus neoformans was 10 µg/mL; in the experiment with Microsporum canis, 10 µg/mL; with Trichophyton rubrum, 1 µg/mL; in experiment [1], 10 µg/mL.
Consider `CCCCOC(Cn1cc[n+](CC(=O)Nc2ccc(F)cc2)c1)c1ccc(Cl)cc1Cl` (stereo not drawn) [2,4(Cl)2C6H3/nC4H9/CH2CONHC6H4pF, 1-(β-Butoxy-2,4-dichlorophenethyl)-3-[N-(p-fluorophenyl)carbamoylmethyl]imidazolium chloride], for which the MIC stood at 100 µg/mL in the experiment with Cryptococcus neoformans, 10 µg/mL in the experiment on Microsporum canis, 10 µg/mL in the experiment on Trichophyton rubrum and 10 µg/mL in experiment [1].
With `O=C(CCn1cc[n+](CC(OCc2ccc(Cl)cc2Cl)c2ccc(Cl)cc2Cl)c1)c1ccc(Br)cc1.[Cl-]` (stereo not drawn) [(CH2)2COC6H4pBr, 1-[2-(p-Bromobenzoyl)ethyl]-3-[2,4-dichloro-β-(2,4-dichlorobenzyloxy)phenethyl]imidazolium chloride], the MIC in the experiment with Cryptococcus neoformans is 1 µg/mL; in the experiment with Microsporum canis, 10 µg/mL; in the experiment on Trichophyton rubrum it was 1 µg/mL; in experiment [1], 1 µg/mL.
In the case of `O=C(CCn1cc[n+](CC(OCc2ccc(Cl)cc2Cl)c2ccc(Cl)cc2Cl)c1)c1ccc(Cl)cc1.[Cl-]` (stereo not drawn) [(CH2)2COC6H4pCl, 1-[2-(p-Chlorobenzoyl)ethyl]-3-[2,4-dichloro-β-(2,4dichlorobenzyloxy)phenethyl]imidazolium chloride], the MIC (with Cryptococcus neoformans; with Microsporum canis; with Trichophyton rubrum; in experiment [1]) was 1 µg/mL each time.
As for `O=C(CC[n+]1ccn(CC(OCc2ccc(Cl)cc2Cl)c2ccc(Cl)cc2Cl)c1)Nc1ccccc1[N+](=O)[O-].[Cl-]` (stereo not drawn) [(CH2)2CONHC6H4oNO2, 1-[2,4-Dichloro-β-(2,4-dichlorobenzyloxy)-phenethyl]-3-{2-[N-(o-nitrophenyl)carbamoyl]ethyl}imidazolium chloride], the MIC in the experiment with Cryptococcus neoformans is 100 µg/mL; in the experiment on Microsporum canis, 10 µg/mL; with Trichophyton rubrum it was 1 µg/mL; in experiment [1], 1 µg/mL.
Take `Clc1ccc(NCCn2cc[n+](CC(OCc3ccc(Cl)cc3Cl)c3ccc(Cl)cc3Cl)c2)cc1.[Br-]` (stereo not drawn) [(CH2)2NHC6H4pCl, 1-[2-(p-chloroanilino)ethyl]-3-[2,4-dichloro-β-(2,4-dichlorobenzyloxy)phenethyl]imidazolium bromide]: the MIC in the experiment on Cryptococcus neoformans stood at 1 µg/mL; with Microsporum canis, 10 µg/mL; with Trichophyton rubrum it was 10 µg/mL; in experiment [1] it was 10 µg/mL.
For the compound `Cc1cccc(C)c1OCC[n+]1ccn(CC(OCc2ccc(Cl)cc2Cl)c2ccc(Cl)cc2Cl)c1.[Br-]` (stereo not drawn) [(CH2)2OC6H32,6(CH3)2, 1-[2,4-Dichloro-β-(2,4-dichlorobenzyloxy)phenethyl]-3-[2-(2,6-xylyloxy)ethyl]imidazolium bromide], the MIC with Cryptococcus neoformans was found to be 1 µg/mL; with Microsporum canis, 10 µg/mL; with Trichophyton rubrum it was 10 µg/mL; in experiment [1], 1 µg/mL.
`Clc1ccc(COC(Cn2cc[n+](CCOc3ccc4ccccc4c3)c2)c2ccc(Cl)cc2Cl)c(Cl)c1.O.[Br-]` (stereo not drawn) [(CH2)2OC10H7, 1-[2,4-Dichloro-β-(2,4-dichlorobenzyloxy)phenethyl]3-[2-(2-naphthyloxy)ethyl]imidazolium bromide hydrate]: the MIC came out at 1 µg/mL in the experiment on Cryptococcus neoformans, 10 µg/mL with Microsporum canis, 10 µg/mL in the experiment on Trichophyton rubrum and 10 µg/mL in experiment [1].
For the compound `Clc1ccc(COC(Cn2cc[n+](CCCOc3ccc4ccccc4c3)c2)c2ccc(Cl)cc2Cl)c(Cl)c1.O.[Cl-]` (stereo not drawn) [(CH2)3OC10H7, 1-[2,4-Dichloro-β-(2,4-dichlorobenzyloxy)phenethyl]-3-[3-(2-naphthyloxy)propyl]imidazolium chloride hydrate], the MIC is 100 µg/mL in the experiment with Cryptococcus neoformans, 10 µg/mL in the experiment on Microsporum canis, 10 µg/mL in the experiment with Trichophyton rubrum and 10 µg/mL in experiment [1].
Turning to `Clc1ccc(C=CCn2cc[n+](CC(OCc3ccc(Cl)cc3Cl)c3ccc(Cl)cc3Cl)c2)c(Cl)c1.[Cl-]` (stereo not drawn) [CH2CHCHC6H3s,4(Cl)2, 1-(2,4-dichlorocinnamyl)-3-[2,4-dichloro-β-(2,4-dichlorobenzyloxy)phenethyl]-imidazolium chloride], the MIC in the experiment with Cryptococcus neoformans was 10 µg/mL; with Microsporum canis it was 10 µg/mL; in the experiment with Trichophyton rubrum, 10 µg/mL; in experiment [1], 1 µg/mL.
As for `Clc1ccc(COC(C[n+]2ccn(CC=Cc3ccccc3)c2)c2ccc(Cl)cc2Cl)c(Cl)c1.[Cl-]` (stereo not drawn) [CH2CHCHC6H5, 1-Cinnamyl-3-[2,4-dichloro-β-(2,4-dichlorobenzyloxy)phenethyl]imidazolium chloride], the MIC in the experiment on Cryptococcus neoformans stood at 100 µg/mL; in the experiment with Microsporum canis, 10 µg/mL; with Trichophyton rubrum, 1 µg/mL; in experiment [1] it was 10 µg/mL.
